Consider five compounds from patent publication US20200339544A1 (JOINT STOCK COMPANY "BIOCAD", priority 2017, published 2020).

Data set [1] can be described thus: Chemical stability in human blood plasma. The format is in vitro ADME. Conditions: pooled human blood plasma; 10 μm; 4 hours at 37° C.; substance amount remaining. How it is done: 2) Determination of chemical stability in human blood plasma.
Determination of stability in human blood plasma was performed using pooled human blood plasma taken from ten healthy donors. The initial candidate solution (10 mM in DMSO) was diluted with pooled blood plasma to a concentration of 10 μm (test solution). The test solution was incubated in a dry block thermostat for 4 hours at 37° C. HPLC with Agilent 1200 liquid chromatography system (Agilent, USA) was employed to determine peak areas of the compounds in test samples, said peak areas corresponding to the initial test time (prior to incubation) and the final test time (after incubation in a dry block thermostat for 4 hours at 37° C.), proteins were preliminarily precipitated with acetonitrile. We used gradient elution (1 mL/min flow rate). Substance amount in % in a sample after thermostatting was determined.
The stability of the compounds was estimated.

The nature of data set [2]: Enzyme stability in human liver S9 fractions. Type of data set: in vitro ADME. As to conditions: 0.5 mg/mL pooled human liver S9 fractions; 10 μM compound; 37° C.; pH 7.4; read-out: Stability in liver S9 fractions, Clint. How it is done: Determination of enzyme stability.
Measuring of candidate enzyme stability enabled estimation of the stability of the compounds towards the action of liver enzymes.
Enzyme degradation rate was measured by incubating the reaction mixture in a dry block thermostat at 37° C., said reaction mixture comprising 0.5 mg/mL of pooled human liver S9 fractions (XenoTech, USA, cat # H0610), 10 μM compound, 2 mM β-nicotinamide adenine dinucleotide (Carbosynth, UK, cat # NN10871) and 4 mM magnesium chloride in 0.1 M sodium-phosphate buffer, pH=7.4. The reaction was quenched with acetonitrile (100 μL of acetonitrile/100 μL of the reaction mixture). After quenching, the samples were centrifuged at 10000 rpm for 10 minutes. Supernatant fluid was tested by chromatographic technique using Agilent1200 (Agilent, USA). We used gradient elution (1 mL/min flow rate). A graph of the logarithm of substance's peak area as a function of time was made. The dependent factor of the line corresponded to the elimination rate constant K based on which the drug's half-life T½ and intrinsic clearance CLint were calculated:
Based on the data obtained, candidate enzyme stability in human liver S9 fractions was determined (see Table 11).

In a further data set the target is T1, WT EGFR (Wild-Type EGFR) (Homo sapiens, UniProt P00533).
T1 construct: purchased SignalChem
The data set can be described thus: Inhibition of WT EGFR kinase activity (ADP-Glo). The format is biochemical. How it is done: (§1) To assess IC50 values of the compounds disclosed herein, a biochemical assay of inhibition of kinase activity in a non-cellular system and a functional cellular anti-proliferation assay were used.
(§2) To assess inhibition of WT EGFR (Wild-Type EGFR), DM EGFR (DoubleMutantEGFR, L828R/T790M) kinase activity, SignalChem kinase system and ADP-Glo™ Kinase Assay (V9102, Promega) detection kit were used.
(§3) The measurements were carried out in a 25 μL reaction volume using a 96-well plate. […] The solution of 0.5 mg/mL peptide substrate and 50 μM ATP in the same buffer were added; the solution was incubated for 180 minutes at 37° C. To detect the amount of ATP taken up during the kinase reaction, the ADP Glo Detection Kit (V9102, Promega) was used. The luminescence was measured with the Infinite M200Pro plate spectrophotometer (Tecan, Switzerland). IC50 values were calculated using Magellan 7.2 software (Tecan, Switzerland) approximating experimental points by four-parameter logistic model with the optimization by Levenberg-Marquardt (Table 14).

The target in data set [3] is T2, DM EGFR (DoubleMutantEGFR, L828R/T790M) (Homo sapiens, UniProt P00533, L858R/T790M).
T2 construct: purchased SignalChem
The data set can be described thus: Inhibition of DM EGFR kinase activity (ADP-Glo). Type of data set: biochemical. Conditions: for IC50: inhibition of kinase activity, EGFR DM (L828R/T790M); for SI, IC50(WT)/IC50(DM): selectivity index, kinase EGFR WT vs EGFR DM. Here is the method:
as §1, §2, §3

The subject of data set [4] is A549 (lung adenocarcinoma, WT). The data set can be described thus: Antiproliferative activity on A549 cells (Alamar Blue). The format is cell-based. As to conditions: Homo sapiens, antiproliferative test. How it is done: (§4) Antiproliferative activity of EGFR inhibitors (Tables 15 and 16) was measured in cell-based bioassay on continuous epithelial cell cultures: A549 (lung adenocarcinoma, ATCC® CRM-CCL-185™—WT), HCC827 (lung adenocarcinoma, ATCC® CRL-2868™—SM (SingleMutantEGFR, exon19delE746-A750)) and H1975 (lung adenocarcinoma, ATCC® CRL-5908™—DM (DoubleMutantEGFR, L828R/T790M)) using cell viability reagent Alamar Blue (ThermoFisher, # DAL1100). Cells were cultured in 10% FBS-supplemented (Gibco, #16140071) RPMI-1640 (PanEco, S330p) for at least 1 passage after thawing, washed with PBS and passaged in 96-well culture plates (3599, Corning) with RPMI-1640 growth medium supplemented with 2% FBS in an amount of 5*10^3 cells/well for A549, 10*10^3 cells/well for HCC827 and 15*10^3 cells/well for H1975 in 100 μL, and incubated at 37° C. in an incubator (Thermo Forma, USA) under 5% of CO2 for 16-18 h for cell attachment.
(§5) The test compounds were dissolved in DMSO in the selected range of concentrations and transferred to RPMI-1640 medium (PanEco, S330p) supplemented with 2% FBS. After adding 50 μl of the prepared dilutions to the cells, the incubation mixture contained the final concentrations of the test substances and no more than 1% DMSO. The plates were Incubated at 37° C. for 72 h. After incubation, 15 μl of Alamar Blue vital dye (ThermoFisher, # DAL1100) was added to each well. The plates were shaken on an orbital shaker (Biosan, Latvia) and further incubated for 3-5 h in a CO2 incubator (Thermo Forma, USA). Number of living cells was estimated using a plate spectrophotometer Infinite M200Pro, (Tecan, Switzerland) measuring fluorescent signal at the excitation wavelength (λEx) of 540 nm and emission wavelength (λEm) of 590 nm.
IC50 was calculated using Magellan 7.2 software (Tecan, Switzerland) approximating experimental points by four-parameter logistic model with the optimization by Levenberg-Marquardt.
(§6) The ratio between IC50 for cell lines containing wild-type EGFR (A549) and IC50 for cell lines containing target mutation L828R/T790M (H1975) is the selectivity index (SI): […]

Data set [5] relates to H1975 (lung adenocarcinoma, DM, L828R/T790M). The data set can be described thus: Antiproliferative activity on H1975 cells (Alamar Blue). Type of data set: cell-based. As to conditions: for IC50: Homo sapiens, NCI-H1975, H1975 cells; for SI IC50(A549)/IC50(DM): selectivity index, A549 vs H1975 cells. Here is the method: as §4, §5
IC50 was calculated using Magellan 7.2 software (Tecan, Switzerland) approximating experimental points by four-parameter logistic model with the optimization by Levenberg-Marquardt. […]
as §6

The nature of data set [6]: General cytotoxicity on HepG2 cells. The format is cell-based. Conditions: human; general cytotoxicity, HepG2 cells, 72 hours, average of several tests. How it is done: (§7) The CC50 values were determined in the test for General cytotoxicity on HepG2 cells (rhepatocellular carcinoma, ATCC® HB-8065™) (Table 16). The cells were subcultured in DMEM medium (PanEco, S420p) supplemented with 10% FBS (Gibco, #16140071) for at least 1 passage after thawing, washed with PBS and passaged in 96-well culture plates (3599, Corning) at a concentration of 2*10^4 cells/100 μL per well, and incubated for 16-18 h. The test substances were titrated in DMSO and transferred to DMEM (PanEco, S420p) medium supplemented with 2% FBS, added to the cells and incubated at 37° C. for 72 hours; viability of the cells was then assessed using Alamar Blue dye (ThermoFisher, # DAL1100). CC50 was determined similarly to IC50.
(§8) The ratio between CC50 for HepG2 cell line and IC50 for H1975 cell line is the therapeutic index (TI): […]

Another data set has as its system HepG2 cells. The data set can be described thus: General cytotoxicity on HepG2 cells. Type of data set: cell-based. As to conditions: therapeutic index, CC50 HepG2 / IC50 H1975. Here is the method:
as §7, §8

The mark [7] stands for this setting: average values obtained in several tests, Table 16, read-out: H1975 (DM) IC50.
[8] abbreviates: antiproliferative test, Table 15, read-out: IC50 H1975 (DM).

Where two headings read alike, the source gives them in different places. Where only a bound is given, the exact number is not on record here.

For `C=CC(=O)Nc1cc(Nc2cc(C(=O)c3ccc(OC)cc3OC)ccn2)c(OC)cc1N(C)CCN(C)C` [EGFR_3365_87, N-(5-((4-(2,4-dimethoxybenzoyl)pyridin-2-yl)amino)-2-((2-(dimethylamino)ethyl)(methyl)amino)-4-methoxyphenyl)acrylamide], in data set [1], the “Stability in blood plasma, %” value is on record as 73.3%. Also, the Intrinsic clearance in human liver S9 fractions at 10 µM in data set [2] was found to be 11.6 µL/min/mg. In addition, the IC50 against WT EGFR (Wild-Type EGFR) worked out at 67.4 nM; in data set [3] it was 2.75 nM; in data set [4], 8020 nM; in data set [5] (setting [7]), 57.6 nM; in data set [5] (setting [8]) it was 57.6 nM. In addition, in data set [3], the “SI, IC50(WT)/IC50(DM)” value worked out at 24.50. Also, the “SI IC50(A549)/IC50(DM)” value in data set [5] stood at 139. Also, it took 19500 nM to reach half-maximal cytotoxicity in data set [6] (CC50 at 72 h). In the data set on HepG2 cells, the “TI, CC50/IC50” value was found to be 338.
For `C=CC(=O)Nc1cc(Nc2cc(C(=O)c3ccccc3OC)ccn2)c(OC)cc1N(C)CCN(C)C` [EGFR_3365_88, N-(2-((2-(dimethylamino)ethyl)(methyl)amino)-4-methoxy-5-((4-(2-methoxybenzoyl)pyridin-2-yl)amino)phenyl)acrylamide], the “Stability in blood plasma, %” value in data set [1] came out at 68.2%. In addition, the Intrinsic clearance in human liver S9 fractions at 10 µM in data set [2] was 17 µL/min/mg. Also, the IC50 on WT EGFR (Wild-Type EGFR) worked out at 78.2 nM; in data set [3], 5.09 nM; in data set [4], 14900 nM; in data set [5] (setting [7]) it was 62.6 nM; in data set [5] (setting [8]) it was 62.6 nM. In addition, the “SI, IC50(WT)/IC50(DM)” value in data set [3] was determined as 15.37. Moreover, the “SI IC50(A549)/IC50(DM)” value in data set [5] is given as 238. The compound further displayed a CC50 at 72 h in data set [6] of 26900 nM. Moreover, the “TI, CC50/IC50” value in the data set on HepG2 cells is on record as 429.
For `C=CC(=O)Nc1cc(Nc2cc(C(=O)c3ccc(OCCOC)cc3)ccn2)c(OC)cc1N(C)CCN(C)C` [EGFR_3365_93, N-(2-((2-(dimethylamino)ethyl)(methyl)amino)-4-methoxy-5-((4-(4-(2-methoxyethoxy)benzoyl)pyridin-2-yl)amino)phenyl) acrylamide], the “Stability in blood plasma, %” value in data set [1] was found to be 96.3%. Also, the Intrinsic clearance in human liver S9 fractions at 10 µM in data set [2] turned out to be 19.5 µL/min/mg. The IC50 against WT EGFR (Wild-Type EGFR) is 41.5 nM; in data set [3], < 1 nM; in data set [4], 9150 nM; in data set [5] (setting [7]), 104 nM; in data set [5] (setting [8]), 104 nM. Moreover, the “SI, IC50(WT)/IC50(DM)” value in data set [3] is >41.48. Besides, in data set [5], the “SI IC50(A549)/IC50(DM)” value is on record as 88. Further, the CC50 at 72 h in data set [6] came out at 23600 nM. Also, the “TI, CC50/IC50” value with HepG2 cells was 227.
For `C=CC(=O)Nc1cc(Nc2nccc(C(=O)c3ccc(OCCC)cc3OC)n2)c(OC)cc1N(C)CCN(C)C` [EGFR_3365_101, N-(2-((2-(dimethylamino)ethyl)(methyl)amino)-4-methoxy-5-((4-(2-methoxy-4-propoxybenzoyl)pyrimidin-2-yl)amino)phenyl)acrylamide], the “Stability in blood plasma, %” value in data set [1] stood at 99.2%. In addition, the Intrinsic clearance in human liver S9 fractions at 10 µM in data set [2] came to 21.3 µL/min/mg. Besides, the IC50 against WT EGFR (Wild-Type EGFR) is 29.3 nM; in data set [3], 2.54 nM; in data set [4] it was 8320 nM; in data set [5] (setting [7]) it was 12.9 nM; in data set [5] (setting [8]), 12.9 nM. Moreover, the “SI, IC50(WT)/IC50(DM)” value in data set [3] amounted to 11.55. Further, the “SI IC50(A549)/IC50(DM)” value in data set [5] was determined as 645. The compound further displayed a CC50 at 72 h in data set [6] of 16000 nM. Also, in the data set on HepG2 cells, the “TI, CC50/IC50” value stood at 1238.
`C=CC(=O)Nc1cc(Nc2nccc(C(=O)c3ccc(N4CCCCC4)cc3OC)n2)c(OC)cc1N(C)CCN(C)C` [EGFR_3365_122, N-(2-((2-(dimethylamino)ethyl)(methyl)amino)-4-methoxy-5-((4-(2-methoxy-4-(piperidin-1-yl)benzoyl)pyrimidin-2-yl)amino)phenyl)acrylamide]: the “Stability in blood plasma, %” value in data set [1] is reported as 92.2%. In addition, the IC50 on WT EGFR (Wild-Type EGFR) worked out at 19.7 nM; in data set [3], 2.67 nM; in data set [4], 5310 nM; in data set [5] (setting [7]) it was 2.21 nM; in data set [5] (setting [8]), 2.21 nM. The “SI, IC50(WT)/IC50(DM)” value in data set [3] was determined as 7.35. Besides, in data set [5], the “SI IC50(A549)/IC50(DM)” value stood at 2398. Further, it took 12600 nM to reach half-maximal cytotoxicity in data set [6] (CC50 at 72 h). Also, the “TI, CC50/IC50” value with HepG2 cells came to 5710.
